Publication PMC8787749, “4-Deoxy-4-fluoro-GalNAz (4FGalNAz) Is a Metabolic Chemical Reporter of O-GlcNAc Modifications, Highlighting the Notable Substrate Flexibility of O-GlcNAc Transferase” (ACS Chemical Biology, 2021)

What was measured:
Test in all cases: UDP-Glo UDP release assay
Format in all cases: biochemical
GALNT1 = target: T1, GALNT1 (Homo sapiens, UniProt Q10472); settings: 50 μM UDP sugar, 50 μM MUC5AC peptide, 10 nM enzyme, 25 mM Tris-HCl pH 7.4, 10 mM MnCl2, room temperature
T1 construct: truncated, residues 41-559, plasmid hT1-pKN55, secreted from Pichia pastoris SMD1163, Ni-NTA purified
T1 sequence (Q10472 41-559): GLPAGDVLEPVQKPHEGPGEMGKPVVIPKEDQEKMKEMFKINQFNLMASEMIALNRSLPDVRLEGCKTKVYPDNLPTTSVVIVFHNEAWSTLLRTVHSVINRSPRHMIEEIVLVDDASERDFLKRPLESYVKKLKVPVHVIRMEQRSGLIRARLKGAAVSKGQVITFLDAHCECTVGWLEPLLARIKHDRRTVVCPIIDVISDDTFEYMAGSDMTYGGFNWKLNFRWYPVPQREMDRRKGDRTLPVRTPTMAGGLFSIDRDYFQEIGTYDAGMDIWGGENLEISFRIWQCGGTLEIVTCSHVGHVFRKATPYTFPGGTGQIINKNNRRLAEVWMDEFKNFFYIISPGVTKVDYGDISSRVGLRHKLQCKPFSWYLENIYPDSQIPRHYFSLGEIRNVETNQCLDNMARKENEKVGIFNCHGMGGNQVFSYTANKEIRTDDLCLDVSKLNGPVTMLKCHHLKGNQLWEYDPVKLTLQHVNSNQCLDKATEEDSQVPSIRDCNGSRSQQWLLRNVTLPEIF

GALNT2 = target: T2, GALNT2 (Homo sapiens, UniProt Q10471); settings: 50 μM UDP sugar, 50 μM MUC5AC peptide, 150 nM enzyme, 25 mM Tris-HCl pH 7.4, 10 mM MnCl2, room temperature
T2 construct: truncated, residues 75-572 as printed, hT2-pKN55 vector, secreted from Pichia pastoris SMD1163, Ni-NTA purified
T2 sequence (Q10471 75-571): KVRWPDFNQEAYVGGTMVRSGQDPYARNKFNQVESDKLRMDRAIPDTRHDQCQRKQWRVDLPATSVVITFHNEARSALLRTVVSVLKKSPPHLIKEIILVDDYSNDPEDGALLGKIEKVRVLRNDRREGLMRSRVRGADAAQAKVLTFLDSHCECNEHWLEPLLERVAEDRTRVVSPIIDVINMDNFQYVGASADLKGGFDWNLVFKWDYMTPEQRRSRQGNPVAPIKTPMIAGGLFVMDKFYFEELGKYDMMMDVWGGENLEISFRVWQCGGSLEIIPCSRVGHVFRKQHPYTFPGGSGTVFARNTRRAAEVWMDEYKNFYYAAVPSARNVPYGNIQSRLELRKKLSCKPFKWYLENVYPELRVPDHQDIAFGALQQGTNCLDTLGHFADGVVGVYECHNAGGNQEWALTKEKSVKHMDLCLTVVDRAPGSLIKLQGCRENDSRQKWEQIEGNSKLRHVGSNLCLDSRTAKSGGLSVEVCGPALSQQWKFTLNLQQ

ncOGT (OGT) = target: T3, ncOGT (OGT) (Homo sapiens, UniProt O15294); settings: 40 μM UDP sugar, 125 μM CKII3K peptide, 300 nM enzyme, 25 mM Tris-HCl pH 7.4, 150 mM NaCl, room temperature
T3 sequence (O15294 2-1046): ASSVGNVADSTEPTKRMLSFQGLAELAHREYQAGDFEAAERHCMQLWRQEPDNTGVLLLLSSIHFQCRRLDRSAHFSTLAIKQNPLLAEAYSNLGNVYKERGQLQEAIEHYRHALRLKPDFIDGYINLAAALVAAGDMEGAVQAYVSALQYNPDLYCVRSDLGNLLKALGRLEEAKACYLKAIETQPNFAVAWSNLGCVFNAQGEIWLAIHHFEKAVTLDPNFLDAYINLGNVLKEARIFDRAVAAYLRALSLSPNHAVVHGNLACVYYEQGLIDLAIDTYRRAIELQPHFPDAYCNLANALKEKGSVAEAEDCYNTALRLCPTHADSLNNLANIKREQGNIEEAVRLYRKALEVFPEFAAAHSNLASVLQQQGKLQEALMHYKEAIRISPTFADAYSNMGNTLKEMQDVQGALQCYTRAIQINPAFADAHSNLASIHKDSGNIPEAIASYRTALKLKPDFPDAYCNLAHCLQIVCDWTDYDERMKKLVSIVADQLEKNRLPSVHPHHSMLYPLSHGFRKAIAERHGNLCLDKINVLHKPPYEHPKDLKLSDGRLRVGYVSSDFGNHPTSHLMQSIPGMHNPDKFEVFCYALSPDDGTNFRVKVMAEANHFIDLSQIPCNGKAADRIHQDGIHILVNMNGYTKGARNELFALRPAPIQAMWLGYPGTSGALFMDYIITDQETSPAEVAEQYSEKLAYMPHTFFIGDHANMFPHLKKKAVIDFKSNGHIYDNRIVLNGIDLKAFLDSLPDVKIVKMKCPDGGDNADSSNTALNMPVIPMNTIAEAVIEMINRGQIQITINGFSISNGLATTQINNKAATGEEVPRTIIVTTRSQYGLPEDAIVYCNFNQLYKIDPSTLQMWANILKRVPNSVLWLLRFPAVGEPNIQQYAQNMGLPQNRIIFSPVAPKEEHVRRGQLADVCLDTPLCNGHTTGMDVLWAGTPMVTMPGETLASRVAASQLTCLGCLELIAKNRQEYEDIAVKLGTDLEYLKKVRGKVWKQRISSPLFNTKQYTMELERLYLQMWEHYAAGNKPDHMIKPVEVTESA

Row | SMILES | UDP-Glo UDP release assay (GALNT1) | UDP-Glo UDP release assay (GALNT2) | UDP-Glo UDP release assay (ncOGT (OGT))
1 | CC(=O)N[C@H]1[C@@H](OP(=O)(O)OP(=O)(O)OC[C@H]2O[C@@H](n3ccc(=O)[nH]c3=O)[C@H](O)[C@@H]2O)O[C@H](CO)[C@H](O)[C@@H]1O [UDP-GalNAc] | despite clear turnover of the native UDP-GalNAc substrate | despite clear turnover of the native UDP-GalNAc substrate | 
2 | CC(=O)N[C@H]1[C@@H](OP(=O)(O)OP(=O)(O)OC[C@H]2O[C@@H](n3ccc(=O)[nH]c3=O)[C@H](O)[C@@H]2O)O[C@H](CO)[C@@H](O)[C@@H]1O [UDP-GlcNAc] |  |  | OGT accepted UDP-GalNAc but less efficiently than UDP-GlcNAc
